In ChEMBL document CHEMBL4828703, “Structure-activity relationship study of THZ531 derivatives enables the discovery of BSJ-01-175 as a dual CDK12/13 covalent inhibitor with efficacy in Ewing sarcoma” (Eur J Med Chem, 2021):
pIC50: −log10 of the molar value. Active and inactive are the calls of the source. The rule behind the calls is not given here.

Assays:
CDK9/cyclin T1 = CDK9/cyclin T1 (Homo sapiens, UniProt P50750); assay: Inhibition of CDK9/Cyclin T1 (unknown origin); assay type: protein-complex assay
Sequence of CDK9/cyclin T1 (O60563 whole entry): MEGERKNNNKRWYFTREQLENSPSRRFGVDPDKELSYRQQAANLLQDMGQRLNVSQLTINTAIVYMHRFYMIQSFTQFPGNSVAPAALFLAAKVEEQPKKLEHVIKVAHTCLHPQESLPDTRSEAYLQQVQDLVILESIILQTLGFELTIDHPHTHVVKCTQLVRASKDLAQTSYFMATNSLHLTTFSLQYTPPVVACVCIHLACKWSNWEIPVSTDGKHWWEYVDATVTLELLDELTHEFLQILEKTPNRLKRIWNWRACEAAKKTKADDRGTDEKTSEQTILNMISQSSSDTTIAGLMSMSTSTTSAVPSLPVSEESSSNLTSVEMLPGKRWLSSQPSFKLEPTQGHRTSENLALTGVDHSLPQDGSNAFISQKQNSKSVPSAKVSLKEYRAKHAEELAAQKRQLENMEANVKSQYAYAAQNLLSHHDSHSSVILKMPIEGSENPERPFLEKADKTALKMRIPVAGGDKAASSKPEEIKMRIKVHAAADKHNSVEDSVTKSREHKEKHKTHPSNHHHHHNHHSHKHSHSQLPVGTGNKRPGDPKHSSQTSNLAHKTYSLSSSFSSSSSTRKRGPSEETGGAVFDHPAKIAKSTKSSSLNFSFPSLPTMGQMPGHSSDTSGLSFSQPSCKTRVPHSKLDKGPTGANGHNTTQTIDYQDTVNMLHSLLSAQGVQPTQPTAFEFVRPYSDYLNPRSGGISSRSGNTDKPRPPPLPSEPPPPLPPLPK
Sequence of CDK9/cyclin T1 (P50750 whole entry): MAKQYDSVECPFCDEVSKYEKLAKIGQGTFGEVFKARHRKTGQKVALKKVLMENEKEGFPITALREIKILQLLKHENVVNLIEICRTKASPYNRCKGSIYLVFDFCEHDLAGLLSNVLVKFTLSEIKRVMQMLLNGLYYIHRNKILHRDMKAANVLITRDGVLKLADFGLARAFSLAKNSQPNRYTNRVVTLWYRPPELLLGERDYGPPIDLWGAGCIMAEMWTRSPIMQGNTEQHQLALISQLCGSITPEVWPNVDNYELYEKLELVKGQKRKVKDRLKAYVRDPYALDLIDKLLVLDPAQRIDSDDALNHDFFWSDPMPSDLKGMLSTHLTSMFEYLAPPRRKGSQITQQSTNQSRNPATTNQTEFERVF

[1] = target: Cyclin-dependent kinase 13/Cyclin-K (Homo sapiens, UniProt Q14004); assay: Inhibition of human recombinant CDK13/CyclinK assessed as reduction in substrate phosphorylation using His-c-Myc as substrate preincubated with enzyme for 5 mins followed by substrate addition for 15 mins in presence of [gamma 32P-ATP] by radioactive kinase assay; assay type: protein-complex assay
Sequence of Cyclin-dependent kinase 13/Cyclin-K (Q14004 whole entry): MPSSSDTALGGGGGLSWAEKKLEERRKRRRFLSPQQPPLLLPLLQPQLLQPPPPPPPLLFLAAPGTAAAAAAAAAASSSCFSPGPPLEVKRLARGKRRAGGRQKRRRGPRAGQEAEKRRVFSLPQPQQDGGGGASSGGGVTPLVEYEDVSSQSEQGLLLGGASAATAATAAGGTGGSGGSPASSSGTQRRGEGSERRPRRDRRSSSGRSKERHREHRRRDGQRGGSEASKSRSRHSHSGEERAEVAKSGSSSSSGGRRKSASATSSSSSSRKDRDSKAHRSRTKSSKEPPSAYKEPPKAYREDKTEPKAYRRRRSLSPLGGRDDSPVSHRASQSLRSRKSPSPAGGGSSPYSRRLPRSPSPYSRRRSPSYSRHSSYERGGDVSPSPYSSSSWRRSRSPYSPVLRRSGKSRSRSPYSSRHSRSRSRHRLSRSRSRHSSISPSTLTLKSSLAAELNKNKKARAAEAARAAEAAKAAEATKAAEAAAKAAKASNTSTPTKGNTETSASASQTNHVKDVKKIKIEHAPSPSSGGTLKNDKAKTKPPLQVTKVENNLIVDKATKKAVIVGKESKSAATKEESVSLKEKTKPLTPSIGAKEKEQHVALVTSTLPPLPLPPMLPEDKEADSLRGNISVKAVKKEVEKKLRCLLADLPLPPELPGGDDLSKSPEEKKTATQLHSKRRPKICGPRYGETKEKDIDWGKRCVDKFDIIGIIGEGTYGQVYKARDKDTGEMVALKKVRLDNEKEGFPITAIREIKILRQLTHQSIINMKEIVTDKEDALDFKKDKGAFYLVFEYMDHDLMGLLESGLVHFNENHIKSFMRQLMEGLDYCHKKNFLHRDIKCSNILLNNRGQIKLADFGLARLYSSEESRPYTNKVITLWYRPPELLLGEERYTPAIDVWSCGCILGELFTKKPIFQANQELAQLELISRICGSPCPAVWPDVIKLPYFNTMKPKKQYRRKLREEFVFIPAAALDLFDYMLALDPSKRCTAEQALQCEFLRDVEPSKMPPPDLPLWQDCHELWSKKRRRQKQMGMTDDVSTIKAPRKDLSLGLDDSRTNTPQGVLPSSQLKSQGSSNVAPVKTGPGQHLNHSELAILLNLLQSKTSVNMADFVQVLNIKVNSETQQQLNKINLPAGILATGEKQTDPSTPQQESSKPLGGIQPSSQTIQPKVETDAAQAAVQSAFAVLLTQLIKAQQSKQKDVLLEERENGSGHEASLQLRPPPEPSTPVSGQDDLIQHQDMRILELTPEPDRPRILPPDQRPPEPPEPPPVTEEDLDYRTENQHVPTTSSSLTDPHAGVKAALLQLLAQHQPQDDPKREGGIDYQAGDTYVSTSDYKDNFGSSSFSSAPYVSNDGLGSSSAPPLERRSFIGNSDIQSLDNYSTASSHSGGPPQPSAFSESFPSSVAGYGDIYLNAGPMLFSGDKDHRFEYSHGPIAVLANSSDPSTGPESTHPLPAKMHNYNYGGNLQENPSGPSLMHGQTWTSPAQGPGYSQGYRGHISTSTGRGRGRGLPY
Sequence of Cyclin-dependent kinase 13/Cyclin-K (O75909 whole entry, further chain): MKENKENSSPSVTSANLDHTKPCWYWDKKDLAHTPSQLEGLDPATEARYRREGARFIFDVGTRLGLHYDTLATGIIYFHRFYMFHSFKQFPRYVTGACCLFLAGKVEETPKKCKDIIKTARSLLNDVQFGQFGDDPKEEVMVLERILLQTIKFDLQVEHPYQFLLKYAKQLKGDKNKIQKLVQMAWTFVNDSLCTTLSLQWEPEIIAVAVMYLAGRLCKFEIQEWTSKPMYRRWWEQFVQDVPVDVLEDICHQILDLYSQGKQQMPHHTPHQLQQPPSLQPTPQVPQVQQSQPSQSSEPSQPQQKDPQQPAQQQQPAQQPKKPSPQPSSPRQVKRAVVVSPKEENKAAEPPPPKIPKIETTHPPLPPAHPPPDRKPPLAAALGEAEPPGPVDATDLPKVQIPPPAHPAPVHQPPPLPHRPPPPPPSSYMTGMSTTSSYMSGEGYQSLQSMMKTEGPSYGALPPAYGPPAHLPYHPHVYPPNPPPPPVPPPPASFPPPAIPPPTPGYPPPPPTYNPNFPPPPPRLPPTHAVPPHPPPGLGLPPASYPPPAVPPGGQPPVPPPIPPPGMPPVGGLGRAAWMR

CDK2/Cyclin A2 = CDK2/Cyclin A2 (Homo sapiens, UniProt P24941); assay: Inhibition of CDK2/Cyclin A (unknown origin); assay type: protein-complex assay
CDK12/Cyclin K = CDK12/Cyclin K (Homo sapiens, UniProt Q9NYV4); assay: Inhibition of human recombinant CDK12/CyclinK assessed as reduction in substrate phosphorylation using His-c-Myc as substrate preincubated with enzyme for 5 mins followed by substrate addition for 15 mins in presence of [gamma 32P-ATP] by radioactive kinase assay; assay type: protein-complex assay
Sequence of CDK12/Cyclin K (O75909 whole entry): as the sequence (O75909 whole entry, further chain) above
Sequence of CDK12/Cyclin K (Q9NYV4 whole entry): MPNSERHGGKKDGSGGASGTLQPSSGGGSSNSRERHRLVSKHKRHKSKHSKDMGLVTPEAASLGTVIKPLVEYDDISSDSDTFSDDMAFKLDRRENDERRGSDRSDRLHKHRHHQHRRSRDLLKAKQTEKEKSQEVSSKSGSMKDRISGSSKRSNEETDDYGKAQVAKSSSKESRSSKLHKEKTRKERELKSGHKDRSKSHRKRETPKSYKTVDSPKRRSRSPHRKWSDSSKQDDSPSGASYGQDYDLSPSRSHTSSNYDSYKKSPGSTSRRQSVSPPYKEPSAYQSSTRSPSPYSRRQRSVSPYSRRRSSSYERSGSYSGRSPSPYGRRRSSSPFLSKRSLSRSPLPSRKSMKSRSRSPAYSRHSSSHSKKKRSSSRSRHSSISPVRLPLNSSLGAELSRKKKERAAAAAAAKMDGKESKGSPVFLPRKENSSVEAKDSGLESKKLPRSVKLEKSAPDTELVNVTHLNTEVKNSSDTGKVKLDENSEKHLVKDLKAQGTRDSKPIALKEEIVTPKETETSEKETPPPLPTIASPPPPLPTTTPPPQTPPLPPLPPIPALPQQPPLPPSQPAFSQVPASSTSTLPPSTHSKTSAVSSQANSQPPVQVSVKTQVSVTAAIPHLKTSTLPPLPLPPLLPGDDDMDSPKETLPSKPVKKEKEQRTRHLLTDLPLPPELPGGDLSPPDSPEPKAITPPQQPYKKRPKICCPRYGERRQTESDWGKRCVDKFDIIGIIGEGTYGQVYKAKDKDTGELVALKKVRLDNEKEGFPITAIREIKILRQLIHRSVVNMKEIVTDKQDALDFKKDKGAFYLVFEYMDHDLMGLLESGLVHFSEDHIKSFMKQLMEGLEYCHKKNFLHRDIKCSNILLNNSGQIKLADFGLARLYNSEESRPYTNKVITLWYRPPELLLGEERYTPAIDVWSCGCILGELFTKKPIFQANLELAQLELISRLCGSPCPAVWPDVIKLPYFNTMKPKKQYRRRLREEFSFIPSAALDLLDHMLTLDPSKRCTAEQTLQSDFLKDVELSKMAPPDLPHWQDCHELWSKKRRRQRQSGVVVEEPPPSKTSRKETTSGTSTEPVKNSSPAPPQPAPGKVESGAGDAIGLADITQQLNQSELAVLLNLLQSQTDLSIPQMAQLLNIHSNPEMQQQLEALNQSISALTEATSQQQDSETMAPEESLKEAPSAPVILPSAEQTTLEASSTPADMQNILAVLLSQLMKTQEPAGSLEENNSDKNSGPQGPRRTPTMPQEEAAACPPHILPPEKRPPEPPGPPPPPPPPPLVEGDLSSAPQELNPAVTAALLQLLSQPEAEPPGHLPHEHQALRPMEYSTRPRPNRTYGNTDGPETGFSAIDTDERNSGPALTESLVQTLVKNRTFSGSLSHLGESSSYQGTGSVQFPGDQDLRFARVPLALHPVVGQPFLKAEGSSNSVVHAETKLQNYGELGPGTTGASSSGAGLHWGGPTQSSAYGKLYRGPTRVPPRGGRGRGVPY

[2] = target: Cyclin-dependent kinase 7/ cyclin H (Homo sapiens, UniProt P50613); assay: Inhibition of CDK7/Cyclin H (unknown origin); assay type: protein-complex assay
[3] = target: Cyclin-dependent kinase 7 (Homo sapiens) (UniProt P50613); assay: Inhibition of THZ1-biotin binding from CDK7 in human Jurkat cells at 1 uM incubated for 6 hrs by CyclinH antibody based competitive pull down assay; assay type: cell-based
Sequence of Cyclin-dependent kinase 7 (Homo sapiens) (P50613 whole entry): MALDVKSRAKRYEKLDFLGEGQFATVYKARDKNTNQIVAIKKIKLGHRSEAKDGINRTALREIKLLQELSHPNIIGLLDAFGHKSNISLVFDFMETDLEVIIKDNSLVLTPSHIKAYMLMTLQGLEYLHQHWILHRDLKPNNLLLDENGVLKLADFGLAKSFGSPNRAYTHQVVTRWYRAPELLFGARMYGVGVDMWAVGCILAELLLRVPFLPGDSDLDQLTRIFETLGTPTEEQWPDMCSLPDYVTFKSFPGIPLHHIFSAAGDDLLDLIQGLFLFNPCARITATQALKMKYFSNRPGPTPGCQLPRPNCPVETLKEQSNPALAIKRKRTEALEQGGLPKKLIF

[4] = Antiproliferative activity against human Kelly cells harboring wild type CDK12 assessed as reduction in cell viability incubated for 72 hrs by CelTiter-Glo assay; assay type: functional, cell-based
[5] = Downregulation of RNA polymerase 2 CTD phosphorylation at Ser5 residue in human Jurkat cells at 1 uM incubated for 6 hrs by immunoblotting analysis; assay type: functional
[6] = Antiproliferative activity against human Kelly cells harboring CDK12 C1039F mutant assessed as reduction in cell viability incubated for 72 hrs by CellTiter-Glo assay; assay type: functional, cell-based
[7] = Downregulation of RNA polymerase 2 in human Jurkat cells at 1 uM measured after 6 hrs by immunoblotting analysis; assay type: functional
[8] = Antiproliferative activity against human TC71 cells assessed as reduction in cell viability; assay type: functional, cell-based; conditions: TC-71
[9] = target: Cyclin-dependent kinase 12/13 (Homo sapiens) (UniProt Q14004+Q9NYV4); assay: Inhibition of CDK12/13 in human jurkat cells assessed as reduction in RNA polymerase 2 CTD phosphorylation at Ser2 residue at 1 uM measured after 6 hrs by immunoblotting analysis; assay type: cell-based
[10] = Downregulation of RNA polymerase 2 CTD phosphorylation at Ser7 residue in human Jurkat cells at 1 uM incubated for 6 hrs by immunoblotting analysis; assay type: functional
[11] = Metabolic stability in mouse liver microsomes assessed as half life; assay type: ADME, Microsome

SMILES	pIC50 (CDK9/cyclin T1)	pIC50 [1]	pIC50 (CDK2/Cyclin A2)	pIC50 (CDK12/Cyclin K)	pIC50 [2]	also measured
CN(C)C/C=C/C(=O)Nc1ccc(C(=O)N2CCC[C@@H](Nc3ncc(Cl)c(-c4c[nH]c5ccccc45)n3)C2)cc1	6.71	6.18	5.89	6.32		inhibition [3]: Active; pIC50 [4]: 7.03; inhibition at 1 µM [5]: 0%; pIC50 [6]: 6.60; inhibition at 1 µM [7]: 0%; pIC50 [8]: 7.18; inhibition [9]: 76%; inhibition at 1 µM [10]: 42%
CN(C)C/C=C/C(=O)Nc1ccc(C(=O)N2CCC[C@@H](Nc3ncc(C4CC4)c(-c4c[nH]c5ccccc45)n3)C2)cc1	< 5.00	< 5.00	< 5.00	5.00	6.20	
Nc1ccc(OC2CCC[C@@H](Nc3ncc(Cl)c(-c4cn(S(=O)(=O)c5ccccc5)c5ccccc45)n3)C2)cc1 (stereo partly specified)						t1/2 [11]: 5.4 min
CN(C)C/C=C/C(=O)Nc1ccc(O[C@H]2CCC[C@@H](Nc3ncc(Cl)c(-c4c[nH]c5ccccc45)n3)C2)cc1	6.88	6.74	6.19	6.74	6.95	
CN(C)C/C=C/C(=O)Nc1ccc(C(=O)N2CCC[C@@H](Nc3ncc(C(F)(F)F)c(-c4c[nH]c5ccccc45)n3)C2)cc1	< 5.00	5.00	5.00	< 5.00	< 5.00	
CN(C)C/C=C/C(=O)Nc1ccc(O[C@@H]2CCC[C@@H](Nc3ncc(Cl)c(-c4c[nH]c5ccccc45)n3)C2)c(F)c1		6.31		6.07		

Continued, in another order:

pIC50 (CDK9/cyclin T1)	pIC50 [1]	pIC50 (CDK2/Cyclin A2)	pIC50 (CDK12/Cyclin K)	pIC50 [2]	SMILES	also measured
7.85	7.30	7.31	7.16		CN(C)C/C=C/C(=O)Nc1ccc(C(=O)N2CC[C@@H](Nc3ncc(Cl)c(-c4c[nH]c5ccccc45)n3)C2)cc1	
6.74	6.24	6.00	6.65	6.94	CN(C)C/C=C/C(=O)Nc1ccc(C(=O)N2CCC[C@@H](Nc3ncc(Br)c(-c4c[nH]c5ccccc45)n3)C2)cc1	
	5.79		6.12		CN(C)C/C=C/C(=O)Nc1ccc(C(=O)N2CCC[C@@H](Nc3ncc(Cl)c(-c4c[nH]c5ccccc45)n3)C2)nc1	
6.81	6.75	6.21	6.78	7.16	CN(C)C/C=C/C(=O)Nc1ccc(N2CCC[C@@H](Nc3ncc(Cl)c(-c4c[nH]c5ccccc45)n3)C2)cc1	
	6.10		6.64		C=CC(=O)Nc1ccc(C(=O)N2CCC[C@@H](Nc3ncc(Cl)c(-c4c[nH]c5ccccc45)n3)C2)nc1	t1/2 [11]: 3.5 min
	6.73		7.45		CN(C)C/C=C/C(=O)Nc1ccc(N2CCC[C@@H](Nc3ncc(Cl)c(-c4c[nH]c5ccccc45)n3)C2)nc1	
5.91	5.74	6.47	5.84	6.41	CN(C)C/C=C/C(=O)Nc1ccc(C(=O)N2CCCC[C@@H](Nc3ncc(Cl)c(-c4c[nH]c5ccccc45)n3)C2)cc1	
